Assay results reported in PubChem BioAssay AID504473 (NMMLSC, 2011).
Active and inactive are the calls of the source.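 How the source made its calls: active means GFP ratio to DMSO above 1.5 or below 0.66; inactive means the rest.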

Key:
Experiment in all cases: expression changes of rapamycin-responsive GFP fusion proteins, S. cerevisiae, GFP-tagged clone panel, flow cytometry (AID 504473);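 further: median GFP fluorescence of the cells measured by high-throughput flow cytometry; test concentration not given here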
[1] = target: General amino acid permease AGP1 (Saccharomyces cerevisiae S288c) (UniProt P25376); details: S. cerevisiae GFP-tagged strains, 3 h, YCL025C
YAL060W = details: S. cerevisiae GFP-tagged strains, 3 h
YAL061W = details: S. cerevisiae GFP-tagged strains, 3 h
YBL087C = details: S. cerevisiae GFP-tagged strains, 3 h
YBR072W = details: S. cerevisiae GFP-tagged strains, 3 h
YBR139W = details: S. cerevisiae GFP-tagged strains, 3 h
YBR208C = details: S. cerevisiae GFP-tagged strains, 3 h
YBR248C = details: S. cerevisiae GFP-tagged strains, 3 h
YCL064C = details: S. cerevisiae GFP-tagged strains, 3 h
YCR002C = details: S. cerevisiae GFP-tagged strains, 3 h
YCR005C = details: S. cerevisiae GFP-tagged strains, 3 h
YDL130W = details: S. cerevisiae GFP-tagged strains, 3 h
YDL204W = details: S. cerevisiae GFP-tagged strains, 3 h
YDL205C = details: S. cerevisiae GFP-tagged strains, 3 h
YDR070C = details: S. cerevisiae GFP-tagged strains, 3 h
YDR382W = details: S. cerevisiae GFP-tagged strains, 3 h
YDR399W = details: S. cerevisiae GFP-tagged strains, 3 h
YDR453C = details: S. cerevisiae GFP-tagged strains, 3 h
YEL007W = details: S. cerevisiae GFP-tagged strains, 3 h
YEL060C = details: S. cerevisiae GFP-tagged strains, 3 h
YEL063C = details: S. cerevisiae GFP-tagged strains, 3 h
YEL071W = details: S. cerevisiae GFP-tagged strains, 3 h
YER081W = details: S. cerevisiae GFP-tagged strains, 3 h
YER117W = details: S. cerevisiae GFP-tagged strains, 3 h
YER151C = details: S. cerevisiae GFP-tagged strains, 3 h
YER156C = details: S. cerevisiae GFP-tagged strains, 3 h
YFR031C-A = details: S. cerevisiae GFP-tagged strains, 3 h
YFR053C = details: S. cerevisiae GFP-tagged strains, 3 h
YGL036W = details: S. cerevisiae GFP-tagged strains, 3 h
YGL062W = details: S. cerevisiae GFP-tagged strains, 3 h
YGL135W = details: S. cerevisiae GFP-tagged strains, 3 h
YGL147C = details: S. cerevisiae GFP-tagged strains, 3 h
YGR019W = details: S. cerevisiae GFP-tagged strains, 3 h
YGR034W = details: S. cerevisiae GFP-tagged strains, 3 h
YGR088W = details: S. cerevisiae GFP-tagged strains, 3 h
YGR121C = details: S. cerevisiae GFP-tagged strains, 3 h
YHL021C = details: S. cerevisiae GFP-tagged strains, 3 h
YHR018C = details: S. cerevisiae GFP-tagged strains, 3 h
YHR087W = details: S. cerevisiae GFP-tagged strains, 3 h
YHR141C = details: S. cerevisiae GFP-tagged strains, 3 h
YHR144C = details: S. cerevisiae GFP-tagged strains, 3 h
YHR203C = details: S. cerevisiae GFP-tagged strains, 3 h
YIL043C = details: S. cerevisiae GFP-tagged strains, 3 h
YIL051C = details: S. cerevisiae GFP-tagged strains, 3 h
YIL052C = details: S. cerevisiae GFP-tagged strains, 3 h
YIL066C = details: S. cerevisiae GFP-tagged strains, 3 h
YIL069C = details: S. cerevisiae GFP-tagged strains, 3 h
YJL056C = details: S. cerevisiae GFP-tagged strains, 3 h

Sequence of General amino acid permease AGP1 (Saccharomyces cerevisiae S288c) (P25376 whole entry, looked up): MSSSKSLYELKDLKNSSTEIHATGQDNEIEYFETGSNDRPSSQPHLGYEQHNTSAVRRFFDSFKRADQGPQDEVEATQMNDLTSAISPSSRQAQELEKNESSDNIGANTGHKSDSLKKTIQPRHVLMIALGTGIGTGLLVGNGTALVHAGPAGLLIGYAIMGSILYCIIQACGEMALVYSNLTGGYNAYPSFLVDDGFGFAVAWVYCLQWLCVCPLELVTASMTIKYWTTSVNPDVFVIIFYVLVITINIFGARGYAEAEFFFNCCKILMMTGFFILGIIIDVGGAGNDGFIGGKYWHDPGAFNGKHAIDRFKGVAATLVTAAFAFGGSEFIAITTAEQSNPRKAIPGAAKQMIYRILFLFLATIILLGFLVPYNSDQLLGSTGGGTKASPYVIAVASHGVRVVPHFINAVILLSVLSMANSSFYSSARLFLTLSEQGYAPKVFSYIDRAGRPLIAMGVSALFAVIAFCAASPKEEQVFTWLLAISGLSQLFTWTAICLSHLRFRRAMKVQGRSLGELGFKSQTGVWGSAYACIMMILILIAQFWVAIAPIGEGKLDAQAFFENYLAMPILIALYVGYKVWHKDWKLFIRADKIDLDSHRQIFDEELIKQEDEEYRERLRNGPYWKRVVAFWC

CNc1nc(N)c([N+](=O)[O-])c(Nc2cccc(Cl)c2)n1
GFP ratio to DMSO [1]: 0.961 (inactive) | GFP ratio to DMSO (YAL060W): 0.91 (inactive) | GFP ratio to DMSO (YAL061W): 0.887 (inactive) | GFP ratio to DMSO (YBL087C): 0.955 (inactive) | GFP ratio to DMSO (YBR072W): 0.849 (inactive) | GFP ratio to DMSO (YBR139W): 0.935 (inactive) | GFP ratio to DMSO (YBR208C): 1.16 (inactive) | GFP ratio to DMSO (YBR248C): 1.01 (inactive) | GFP ratio to DMSO (YCL064C): 0.902 (inactive) | GFP ratio to DMSO (YCR002C): 0.916 (inactive) | GFP ratio to DMSO (YCR005C): 2.27 | GFP ratio to DMSO (YDL130W): 1.06 (inactive) | GFP ratio to DMSO (YDL204W): 0.851 (inactive) | GFP ratio to DMSO (YDL205C): 0.943 (inactive) | GFP ratio to DMSO (YDR070C): 1.14 (inactive) | GFP ratio to DMSO (YDR382W): 1.1 (inactive) | GFP ratio to DMSO (YDR399W): 0.977 (inactive) | GFP ratio to DMSO (YDR453C): 1.02 (inactive) | GFP ratio to DMSO (YEL007W): 0.89 (inactive) | GFP ratio to DMSO (YEL060C): 0.826 (inactive) | GFP ratio to DMSO (YEL063C): 1.09 (inactive) | GFP ratio to DMSO (YEL071W): 2.01 | GFP ratio to DMSO (YER081W): 1.21 (inactive) | GFP ratio to DMSO (YER117W): 0.883 (inactive) | GFP ratio to DMSO (YER151C): 0.926 (inactive) | GFP ratio to DMSO (YER156C): 1.01 (inactive) | GFP ratio to DMSO (YFR031C-A): 1.02 (inactive) | GFP ratio to DMSO (YFR053C): 0.888 (inactive) | GFP ratio to DMSO (YGL036W): 0.781 (inactive) | GFP ratio to DMSO (YGL062W): 1.65 | GFP ratio to DMSO (YGL135W): 1.07 (inactive) | GFP ratio to DMSO (YGL147C): 0.988 (inactive) | GFP ratio to DMSO (YGR019W): 1.02 (inactive) | GFP ratio to DMSO (YGR034W): 1.01 (inactive) | GFP ratio to DMSO (YGR088W): 1.07 (inactive) | GFP ratio to DMSO (YGR121C): 1.02 (inactive) | GFP ratio to DMSO (YHL021C): 1.11 (inactive) | GFP ratio to DMSO (YHR018C): 0.948 (inactive) | GFP ratio to DMSO (YHR087W): 0.926 (inactive) | GFP ratio to DMSO (YHR141C): 1.04 (inactive) | GFP ratio to DMSO (YHR144C): 0.837 (inactive) | GFP ratio to DMSO (YHR203C): 1.04 (inactive) | GFP ratio to DMSO (YIL043C): 1 (inactive) | GFP ratio to DMSO (YIL051C): 0.981 (inactive) | GFP ratio to DMSO (YIL052C): 0.864 (inactive) | GFP ratio to DMSO (YIL066C): 0.868 (inactive) | GFP ratio to DMSO (YIL069C): 1.1 (inactive) | GFP ratio to DMSO (YJL056C): 0.808 (inactive)
